Experimental data from article PMC9490236, “Accurate de novo design of membrane-traversing macrocycles” (Cell, 2022).
Where a SMILES comes first, the peptide text is derived from it. [ ]: non-standard residue; d: D form. dNMeI = CC[C@@H](C)[C@@H](NC)C(=O)O; NMeF = CN[C@@H](Cc1ccccc1)C(=O)O; NMeL = CN[C@@H](CC(C)C)C(=O)O; dNMeL = CN[C@H](CC(C)C)C(=O)O; NMeA = CN[C@@H](C)C(=O)O; dNMeA = CN[C@H](C)C(=O)O

Key:
in vitro = settings: PAMPA, PAMPA_Papp_Avg
Caco-2 cells = experiment: Caco-2 permeability assay (apical to basolateral); assay type: in vitro ADME, human; settings: Caco-2
Method in brief: (§1)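 Apical-to-basolateral flux was determined by LC-MS of both compartments after 90 min at 37°C on an orbital shaker, with 50 μM peptide on the apical side and HBSS below. Monolayers were grown for 6 days in an accelerated Caco-2 Transwell format and verified by TEER before and after the run.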

[1] = Caco-2 permeability assay (apical to basolateral); assay type: in vitro ADME, human; settings: for Papp A→B: Caco-2, Caco_Papp_Average
Method in brief: as §1

[2] = PAMPA

For `CC[C@@H](C)[C@H]1NC(=O)[C@@H](Cc2ccccc2)NC(=O)[C@@H](CC(C)C)NC(=O)[C@@H]2CCCN2C(=O)[C@H]2CCCN2C(=O)[C@H](CC(C)C)NC(=O)[C@H](CC(C)C)NC(=O)[C@@H](CC(C)C)N(C)C(=O)[C@H](C)N(C)C(=O)[C@H]2CCCN2C1=O` [Design D10.34, DPHE DILE DPRO *ALA *DLEU LEU LEU DPRO PRO DLEU] (cyclo([dL][dF][dI][dP][NMeA][dNMeL]LL[dP]P)), which Papp (in vitro) is on record?
Its Papp is 4.51 ×10⁻⁶ cm/s.

And the Caco_R1 (Caco-2 cells)?
Its Caco_R1 is 14.68.

What about the Caco_R3 (Caco-2 cells) of the same compound?
The Caco_R3 was 14.14.

And the Papp A→B [1]?
Its Papp A→B is 15 ×10⁻⁶ cm/s.

What about the Papp at 90 min, 50 µM ([1]; human, Caco-2) of the same compound?
The Papp at 90 min, 50 µM was greater than 10 ×10⁻⁶ cm/s.

What about the PAMPA_R1 [2] of the same compound?
The PAMPA_R1 was 4.77E-06.

What about the PAMPA_R3 [2] of the same compound?
The PAMPA_R3 was 4.57E-06.

For `CC[C@H](C)[C@@H]1NC(=O)[C@@H](C(C)C)NC(=O)[C@@H](CC(C)C)N(C)C(=O)[C@H]2CCCN2C(=O)[C@@H](CC(C)C)NC(=O)[C@@H](CC(C)C)N(C)C(=O)[C@H](CC(C)C)NC(=O)[C@H]2CCCN2C(=O)[C@H](C)N(C)C(=O)[C@H]2CCCN2C1=O` [Design D10.41, DPRO *DLEU DVAL ILE DPRO *ALA DPRO LEU *DLEU DLEU] (cyclo(I[dP][NMeA][dP]L[dNMeL][dL][dP][dNMeL][dV])), which Papp (in vitro) is on record?
The Papp was 5.69 ×10⁻⁶ cm/s.

And the Caco_R1 (Caco-2 cells)?
The Caco_R1 was 4.42.

And the Caco_R3 (Caco-2 cells)?
Its Caco_R3 is 10.34.

What about the Papp A→B [1] of the same compound?
Its Papp A→B is 7.66 ×10⁻⁶ cm/s.

And the PAMPA_R1 [2]?
The PAMPA_R1 was 5.92E-06.

And the PAMPA_R3 [2]?
Its PAMPA_R3 is 5.38E-06.

With `CC[C@@H](C)[C@H]1NC(=O)[C@@H]2CCCN2C(=O)[C@@H]([C@H](C)CC)NC(=O)[C@@H](C)N(C)C(=O)[C@H](CC(C)C)NC(=O)[C@@H](Cc2ccccc2)NC(=O)[C@H](CC(C)C)N(C)C(=O)[C@H]2CCCN2C(=O)[C@@H](CC(C)C)NC(=O)[C@H](CC(C)C)NC(=O)[C@H]2CCCN2C1=O` [Design D11.1, DILE DPRO LEU DLEU DPRO *LEU DPHE LEU *DALA DILE PRO] (cyclo(L[dL][dP][NMeL][dF]L[dNMeA][dI]P[dI][dP])) as the compound, how does the Papp (in vitro) read?
Its Papp is 3.48 ×10⁻⁶ cm/s.

And the Caco_R1 (Caco-2 cells)?
Its Caco_R1 is 2.39.

And the Caco_R3 (Caco-2 cells)?
The Caco_R3 was 3.24.

What about the Papp A→B [1] of the same compound?
Its Papp A→B is 2.77 ×10⁻⁶ cm/s.

What about the PAMPA_R1 [2] of the same compound?
Its PAMPA_R1 is 3.55E-06.

And the PAMPA_R3 [2]?
The PAMPA_R3 was 3.63E-06.

For `CC[C@@H](C)[C@H]1NC(=O)[C@H]([C@@H](C)CC)NC(=O)[C@H](Cc2ccccc2)N(C)C(=O)[C@H]2CCCN2C(=O)[C@@H]([C@H](C)CC)NC(=O)[C@@H]([C@H](C)CC)N(C)C(=O)[C@H](CC(C)C)NC(=O)[C@H]2CCCN2C(=O)[C@@H]2CCCN2C(=O)[C@H](C(C)C)NC(=O)[C@H]2CCCN2C1=O` [Design D11.4, VAL PRO DPRO LEU *DILE DILE DPRO *PHE ILE DILE DPRO] (cyclo(I[dI][dP]VP[dP]L[dNMeI][dI][dP][NMeF])), which Papp (in vitro) is on record?
The Papp was 1.47 ×10⁻⁶ cm/s.

What about the Caco_R1 (Caco-2 cells) of the same compound?
Its Caco_R1 is 3.83.

And the Caco_R3 (Caco-2 cells)?
Its Caco_R3 is 6.55.

And the Papp A→B [1]?
Its Papp A→B is 4.99 ×10⁻⁶ cm/s.

And the PAMPA_R1 [2]?
Its PAMPA_R1 is 1.64E-06.

What about the PAMPA_R3 [2] of the same compound?
Its PAMPA_R3 is 6.73E-07.

For `CC[C@@H](C)[C@H]1NC(=O)[C@@H](CC(C)C)NC(=O)[C@H](C(C)C)NC(=O)[C@@H](CC(C)C)N(C)C(=O)[C@@H]2CCCN2C(=O)[C@H](C)NC(=O)[C@H](CC(C)C)N(C)C(=O)[C@H]2CCCN2C(=O)[C@H](C)N(C)C(=O)[C@@H](CC(C)C)N(C)C(=O)[C@@H]2CCCN2C1=O` [Design D11.5, ALA PRO *DLEU VAL DLEU DILE PRO *DLEU *ALA DPRO *LEU] (cyclo(AP[dNMeL]V[dL][dI]P[dNMeL][NMeA][dP][NMeL])), which Papp (in vitro) is on record?
Its Papp is 2.81 ×10⁻⁶ cm/s.

And the Caco_R1 (Caco-2 cells)?
Its Caco_R1 is 2.93.

What about the Caco_R3 (Caco-2 cells) of the same compound?
Its Caco_R3 is 3.89.

And the Papp A→B [1]?
Its Papp A→B is 3.84 ×10⁻⁶ cm/s.

What about the PAMPA_R1 [2] of the same compound?
The PAMPA_R1 was 2.56E-06.

What about the PAMPA_R3 [2] of the same compound?
The PAMPA_R3 was 3.12E-06.

Which Papp (in vitro) does the source give for `CC[C@@H](C)[C@H]1NC(=O)[C@H](C)N(C)C(=O)[C@H]([C@@H](C)CC)NC(=O)[C@H]2CCCN2C(=O)[C@H](CC(C)C)N(C)C(=O)[C@@H](C(C)C)NC(=O)[C@H](C)N(C)C(=O)[C@H]([C@@H](C)CC)NC(=O)[C@@H](CC(C)C)NC(=O)[C@@H]2CCCN2C(=O)[C@H]2CCCN2C1=O` [Design D11.10, DPRO ILE *ALA DILE DPRO PRO DLEU ILE *ALA DVAL *LEU] (cyclo([dL]I[NMeA][dV][NMeL][dP]I[NMeA][dI][dP]P)) here?
Its Papp is 2.45 ×10⁻⁶ cm/s.

What about the Caco_R1 (Caco-2 cells) of the same compound?
The Caco_R1 was 4.35.

What about the Caco_R3 (Caco-2 cells) of the same compound?
Its Caco_R3 is 4.8.

What about the Papp A→B [1] of the same compound?
The Papp A→B was 4.54 ×10⁻⁶ cm/s.

And the PAMPA_R1 [2]?
The PAMPA_R1 was 2.19E-06.

What about the PAMPA_R3 [2] of the same compound?
The PAMPA_R3 was 3.23E-06.
